This note sets out measurements from ChEMBL document CHEMBL1201862, “PubChem BioAssay data set” (2004).

Assay in all cases: NCI-60 cell line screen, 48 h
The subject of test [1] is HCT-15.
The test system of test [2] is HL-60.
The test system of test [3] is HOP-62.
Test [4] deals with HT-29.
The test system of test [5] is NCI-H23.
For test [6], the system named is NCI-H522.
In test [7] the test system is OVCAR-4.
The test system of test [8] is RPMI-8226.
The subject of test [9] is RXF 393.
Test [10] deals with SF-268.
Test [11] deals with SF-295.
In test [12] the test system is SK-MEL-28.
In test [13] the test system is SK-MEL-2.
The subject of test [14] is SNB-19.
Test [15] relates to SNB-75.
Test [16] has as its system SR.
Test [17] deals with SW-620.
In test [18] the test system is TK-10.
Test [19] relates to UACC-257.
For test [20], the system named is UACC-62.

SMILES strings stand for the structures.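 The compound was tested at five concentrations on cells cultured in 96-well plates, with a 48-hour exposure period. GI50 is the concentration that inhibits growth by half.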 The source made the active and inactive calls. No stated cut-off is given here; in the data, active = GI50 up to about 1.1 µM and inactive = higher. A value given as a limit tells only on which side of the number the result lay.

Consider `O=[N+]([O-])c1ccc(N2CCC(CCCC3CCN(c4ccc([N+](=O)[O-])cc4[N+](=O)[O-])CC3)CC2)c([N+](=O)[O-])c1`, for which the GI50 is 18.3 µM in test [1]; 15.4 µM (inactive) in test [2]; 15.5 µM (inactive) in test [3]; 8.11 µM (inactive) in test [4]; 21.2 µM (inactive) in test [5]; 18.2 µM (inactive) in test [6]. The GI50 in test [7] was 12.9 µM (inactive); in test [8], 13.4 µM (inactive); in test [9] it was 15.3 µM (inactive); in [10], 20 µM (inactive); in test [11] it was 17.4 µM (inactive); in test [12], 12.7 µM (inactive). The GI50 in [13] was 16.9 µM (inactive); in [14] it was 16.1 µM (inactive); in test [15], 14.7 µM (inactive); in test [16], 27 µM (inactive); in test [17], 19.9 µM (inactive); in test [18] it was 16.9 µM (inactive). The results for the GI50 in test [19] and in [20] were 14.6 µM (inactive) and 11.9 µM (inactive), respectively.
Take `CCCC(=O)Nc1cc(C(=O)N2C[C@@H]3C[C@]34C2=CC(=O)c2[nH]cc(C)c24)n(COC)c1`: the GI50 is 15.9 µM in [1]; 1.79 µM (inactive) in [2]; 14 µM (inactive) in test [3]; 8.55 µM (inactive) in test [4]; 1.56 µM (inactive) in test [5]; 0.977 µM (active) in [6]. Further, the GI50 in test [7] is 8.02 µM (inactive); in test [8] it was 12.2 µM (inactive); in [9] it was 1.84 µM (inactive); in test [10], 1.48 µM (inactive); in test [11] it was 19.9 µM (inactive); in test [12], 7.48 µM (inactive). Further, the GI50 in test [13] was 2.38 µM (inactive); in [14] it was 12.4 µM (inactive); in test [15], 7.36 µM (inactive); in [16], 0.566 µM (active); in test [17], 1.62 µM (inactive); in [18], 10.7 µM (inactive). The GI50 was 9.79 µM (inactive) in test [19] and 5.86 µM (inactive) in [20].
As for `COC(=O)C(=O)C(C(=O)C=C(C)C)C(=O)C(=O)Nc1ccc(C)cc1C` (stereo not given), the GI50 is over 100 µM in test [1]; > 100 µM (inactive) in [2]; > 100 µM (inactive) in test [3]; > 100 µM (inactive) in [4]; > 100 µM (inactive) in test [5]; > 100 µM (inactive) in test [6]. Further, the GI50 in test [7], in test [8], in test [9], in [10], in [11] and in test [12] was > 100 µM (inactive) in each case. For the same compound, the GI50 in test [13], in [14], in test [15], in [16], in test [17] and in [18] was > 100 µM (inactive) in each case. Further, the GI50 in [19] and in [20] was > 100 µM (inactive) each time.
For `CC(C)(C)/N=N/C(C)(C)N=C=O`, the GI50 in test [1] was over 100 µM; in [2], > 100 µM (inactive); in test [3], > 100 µM (inactive); in [4], > 100 µM (inactive); in test [5], > 100 µM (inactive); in test [6] it was > 100 µM (inactive). The GI50 was > 100 µM (inactive) in test [7]; > 100 µM (inactive) in test [8]; > 100 µM (inactive) in test [9]; > 100 µM (inactive) in test [10]; 60.1 µM (inactive) in [11]; > 100 µM (inactive) in [12]. The GI50 in [13], in test [14], in [15], in [16], in test [17] and in test [18] was > 100 µM (inactive) in each case. In addition, the GI50 in [19] and in [20] was > 100 µM (inactive) in each case.
Regarding `COc1ccc(/C=C/c2cc(OC)cc(OC)c2)cc1` [TRISMETHOXYRESVERATROL], the GI50 is 4.57 µM in test [1]; 2.56 µM (inactive) in test [2]; 4.92 µM (inactive) in test [3]; 3.88 µM (inactive) in test [4]; 6.98 µM (inactive) in test [5]; 2.68 µM (inactive) in [6]. Further, the GI50 is 18.9 µM (inactive) in [7]; 3.56 µM (inactive) in test [8]; 3.05 µM (inactive) in [9]; 7.93 µM (inactive) in test [10]; 4.38 µM (inactive) in [11]; 3.82 µM (inactive) in test [12]. The GI50 was 6.07 µM (inactive) in test [13]; 20.7 µM (inactive) in test [14]; 4.82 µM (inactive) in [15]; 4.24 µM (inactive) in [16]; 4.98 µM (inactive) in [17]; 12.6 µM (inactive) in [18]. Moreover, the GI50 in test [19] is 4.62 µM (inactive); in test [20] it was 3.56 µM (inactive).
